Patent US10702603B2 (priority 2012, dated 2020)
“And” between values parts separate entries of the source, which are not always exact repeats. Equal values may be shown once. Read-outs that look alike come from different tables or passages of the source.

Assays:
[1] = cited from earlier work
[2] = system: Xenotropic Murine Leukemia Virus (XMuLV); format: cell-based
XMuLV = assay: Viral inactivation study with TRITON X-100 using 3 different antibodies
Experimental: Viral inactivation studies were performed with TRITON X-100® at 1-2× CMC (0.02% w/w) at ambient temperature using 3 different antibodies. TRITON X-100® is a mixture with a range of molecular lengths, so the CMC has a range between 0.01-0.02% w/w at 25° C. in water.

Compound: C[C@H](CCC(=O)NCCC[N+](C)(C)CCCS(=O)(=O)[O-])[C@H]1CC[C@H]2[C@@H]3[C@H](O)C[C@@H]4C[C@H](O)CC[C@]4(C)[C@H]3C[C@H](O)[C@]12C [CHAPS, 3-[(3-cholamidopropyl)dimethylammonio]-1-propanesulfonate]
- CMC ([1]; […]): 6 to 10 mM

Compound: C[C@H](CCC(=O)NCCC[N+](C)(C)CC(O)CS(=O)(=O)[O-])[C@H]1CC[C@H]2[C@@H]3[C@H](O)C[C@@H]4C[C@H](O)CC[C@]4(C)[C@H]3C[C@H](O)[C@]12C (stereo partly shown) [CHAPSO, 3-([3-Cholamidopropyl]dimethylammonio)-2-hydroxy-1-propanesulfonate]
- CMC ([1]; […]): 8 mM

Compound: CCCCCCCCCCCC[N+](C)(C)CCCCCCCCCCC(=O)[O-] [DDMAU, N-Dodecyl-N,N-(dimethylammonio)undecanoate]
- CMC ([1]; […]): 0.13 mM

Compound: CCCCCCCCCCCC[N+](C)(C)CC(=O)[O-] [EMPIGEN BB, N,N-Dimethyl-N-dodecylglycine betaine]
- CMC ([1]; […]): 1.6 to 2.1 mM

Compound: CCCCCCCCCCCC[N+](C)(C)[O-] [LDAO, N,N-dimethyldodecylamine N-oxide]
- Log Reduction Factor (120 min) [2]: 4
- Log Reduction Factor (LRF) [2]: 3.14 and 3.07 and 3.08
- CMC ([1]; […]): 1 to 2 mM

Compound: CCCCCCCCCCCC[N+](C)(C)CCCS(=O)(=O)[O-] [Sulfobetaine-12, N-dodecyl-N,N-dimethyl-3-ammonio-1-propanesulfonate]
- Log Reduction Factor (120 min) [2]: 4.2

Compound: CCCCCCCCCCCCCC[N+](C)(C)CCCS(=O)(=O)[O-] [Sulfobetaine-14, N-tetradecyl-N,N-dimethyl-3-ammonio-1-propanesulfonate]
- Log Reduction Factor (120 min) [2]: 4.7

Compound: CCCCCCCCCCCCCCCC[N+](C)(C)CCCS(=O)(=O)[O-] [Sulfobetaine-16, N-hexadecyl-N,N-dimethyl-3-ammonio-1-propanesulfonate]
- Log Reduction Factor (120 min) [2]: 4.2
- Log Reduction Factor (LRF) [2]: 3.16 and 3.15 and 3.14

Compound: CCCCCCCC[N+](C)(C)CCCS(=O)(=O)[O-] [ZWITTERGENT 3-08, n-Octyl-N,N-dimethyl-3-ammonio-1-propanesulfonate]
- CMC ([1]; […]): 330 mM

Compound: CCCCCCCCCC[N+](C)(C)CCCS(=O)(=O)[O-] [ZWITTERGENT 3-10, n-Decyl-N,N-dimethyl-3-ammonio-1-propanesulfonate]
- CMC ([1]; […]): 25 to 40 mM

Compound: TRITON X-100
- CMC ([1]; at 25° C. in water): 0.01-0.02 % w/w
- viral inactivation (XMuLV; 0.25-0.5× CMC (0.006% w/w), below the CMC): No viral inactivation
- XMuLV inactivation (XMuLV; 1-2× CMC (0.02% w/w), ambient temperature, within 45 min): > 4 log
